Values joined by “and” are separate entries in the source; they are usually repeats but may differ in a detail not shown here. Equal entries are not always repeated. Where two headings read alike, the source gives them in different places.
Tested on: H9 cells
Assay: qHTS for survival of dissociated H9 cells (CellTiter-Glo, 24 hours after seeding)
Assay type: cell-based, human
Text: FIG. 2 schematically illustrates qHTS procedure.
All the screed compounds were received pre-plated at the pre-determined concentrations. […] Curve classification is explained in Huang et al. “Chemical genomics profiling of environmental chemical modulation of human nuclear receptors” Environ. Health. Perspect.

[1] = H9 cell survival normalized to 10 μM Y-27632 (taken to be 100%)
[2] = H9 cell survival, CellTiter-Glo 24 hours after seeding; read-out: AC50 (concentration at 50% efficacy)
[3] = H9 cell survival, normalized to 10 μM Y-27632
[4] = Homo sapiens, H9, 24 h, H9 cell survival normalized to 10 μM Y-27632 (taken to be 100%); read-out: Max (maximum activity value from all tested concentrations)
[5] = Homo sapiens, H9, 24 h, H9 cell survival, CellTiter-Glo 24 hours after seeding; read-out: AC50 (concentration at 50% efficacy)
[6] = Homo sapiens, H9, 24 h, H9 cell survival, normalized to 10 μM Y-27632; read-out: Efficacy (activity range between predicted activities at zero and infinite doses, Hill equation)
[7] = Homo sapiens, H9, 24 h; read-out: Efficacy (activity range between predicted activities at zero and infinite doses, Hill equation)
[8] = Homo sapiens, H9, 24 h; read-out: Max (maximum activity value from all tested concentrations)
[9] = Homo sapiens; H9 cell survival, CellTiter-Glo 24 hours after seeding; read-out: AC50 (concentration at 50% efficacy)
[10] = Homo sapiens, H9, 24 h, read-out: Efficacy (activity range between predicted activities at zero and infinite doses, Hill equation)
[11] = Homo sapiens, H9, 24 h, read-out: Max (maximum activity value from all tested concentrations)

Compound	Max (maximum activity value from all tested concentrations) [1]	AC50 [2]	Efficacy (activity range between predicted activities at zero and infinite doses, Hill equation) [3]	other results
CC1=C(C(=O)Nc2cc3cn[nH]c3cc2F)C(c2ccc(C(F)(F)F)cc2)CC(=O)N1 (centres unmarked) [GSK-429286A]	129.3%	3.32 µM	126	
Cc1cncc2cccc(S(=O)(=O)N3CCCN(C(=O)CN)C[C@@H]3C)c12 [Glycyl-H-1152]				Emax [4]: 121%
Cn1c2ccccc2c2c3c(c4c5ccccc5n(CCC#N)c4c21)CNC3=O [Go-6976]				Emax [4]: 49.1%; AC50 [5]: 4.69 µM; Emax [6]: 37.3%
Cl.Cl.O=S(=O)(NCCNC/C=C/c1ccc(Br)cc1)c1cccc2cnccc12 [H-89]	25.95%	1.87 µM	16.9	
O=S(=O)(c1cccc2cnccc12)N1CCNCC1 [HA-100]	88.17%	7.31 µM	88.9	
Cl.NC(N)=NCCNS(=O)(=O)c1cccc2cnccc12 [HA-1004 hydrochloride]	50.05%	5.17 µM	50	
N#Cc1cc(-c2ccnc(Nc3ccc(N4CCOCC4)cc3)n2)ccc1OC1CCOCC1 [IKK epsilon-IN-1]	28.74%	14.7 µM	30.6	
C/C=C(/C)C(=O)O[C@H]1C(C)=C[C@]23C(=O)[C@@H](C=C(CO)[C@@H](O)[C@]12O)[C@H]1[C@@H](C[C@H]3C)C1(C)C [Ingenol mebutate]				Emax [7]: 41.4%; Emax [8]: 57.6%; AC50 [9]: 0.118 µM
CNc1ccc([N+](=O)[O-])c(Nc2ccc3[nH]ncc3c2)n1 [KRIBB11]	72.62%	0.585 µM	62.1	
O=C(c1ccc(/C=C/c2n[nH]c3ccccc23)cc1)N1CCNCC1 [KW-2449]				Emax [4]: 40%; AC50 [5]: 33.2 µM; Emax [6]: 44.5%
O=C(NCc1cccc(O)c1)c1cc2cc(F)ccc2[nH]1 [KX1-004]	102.2%	3.29 µM	103	
Cc1c[nH]c2ncnc(N3CCC(CN)(C(=O)Nc4cccc(OC(=O)N(C)C)c4)CC3)c12 [LX-7101]				Emax [7]: 21.6%; Emax [8]: 53.7%; AC50 [9]: 2.33 µM
C[C@]12O[C@H](C[C@]1(O)CO)n1c3ccccc3c3c4c(c5c6ccccc6n2c5c31)CNC4=O [Lestaurtinib]				AC50 (Homo sapiens, H9, 24 h, read-out: AC50 (concentration at 50% efficacy)): 1.18 µM; Emax [10]: 7.59%; Emax [11]: 53%
Cc1nc(N2CCN(C(=O)c3ccco3)CC2)c2c3c(sc2n1)CCCC3 [ML192]	25.23%	0.521 µM	13.5	
N#CCNC(=O)c1ccc(-c2ccnc(Nc3ccc(N4CCOCC4)cc3)n2)cc1 [Momelotinib]				AC50 [5]: 0.935 µM
C=C(CO)C(=O)O[C@H]1CC(=C)[C@@H]2C[C@H](O)C(=C)[C@@H]2[C@H]2OC(=O)C(=C)[C@@H]21 [NCGC00168845-02]	21.8%	3.61 µM	27.1	
CN(C)c1ccc(Nc2nc(N)n(C(=O)c3c(F)cccc3F)n2)cc1 [NCGC00244250]	58.27% and 40.04%	6.56 µM and 8.33 µM	23.7 and 39.3	
CC(C)CC(=O)OC1OC=C(CO[C@@H]2O[C@H](CO)[C@@H](O)[C@H](O)[C@H]2O)C2CC(O)C(O)(CO)C12 (some centres unmarked) [NCGC00347879-02]	30.87%		0	

Compound	Max (maximum activity value from all tested concentrations) [1]	AC50 [2]	Efficacy (activity range between predicted activities at zero and infinite doses, Hill equation) [3]	other results
CC1(CCOC2OC(CO)C(O)C(O)C2O)CCC23OC2(C1)C(O)CC1C(C)(C(=O)O)CCCC13C (centres unmarked) [NCGC00380931-01]	24.96%	11.4 µM	28	
C[C@@H]1O[C@@H](OC2C(O[C@H]3[C@H](O[C@H]4CC[C@@]5(C)C(CC[C@]6(C)C5CC=C5C7CC(C)(C)CC(O)[C@]7(C)CC[C@]56C)C4(C)C)O[C@H](C(=O)O)[C@@H](O)[C@@H]3O)OC(CO)C(O)C2O)[C@H](O)[C@H](O)[C@H]1O (some centres unmarked) [NCGC00381003-01]	22.06%	2.48 µM	24.5	
CC(=O)O[C@H]1C(=O)[C@]2(C)C(O)C[C@H]3OC[C@@]3(OC(C)=O)[C@H]2[C@H](OC(=O)c2ccccc2)[C@]2(O)C[C@H](O)C(C)=C1C2(C)C (some centres unmarked) [NCGC00384655-01]	23.91%	1.74 µM	29.1	
CC1(C)CC[C@]2(C(=O)O[C@@H]3O[C@H](CO[C@@H]4O[C@H](CO)[C@@H](O)[C@H](O)[C@H]4O[C@@H]4O[C@H](CO)[C@H](O)[C@H](O)[C@H]4O)[C@@H](O)[C@H](O[C@@H]4O[C@H](CO)[C@@H](O)[C@H](O)[C@H]4O)[C@H]3O)CC[C@]3(C)C(=CCC4[C@@]5(C)CC[C@H](O[C@@H]6OC[C@@H](O)[C@H](O)[C@H]6O)[C@@](C)(C(=O)O)C5CC[C@]43C)[C@@H]2C1 (some centres unmarked) [NCGC00384798-01]	38.81%		0	
COc1ccc2c(c1O)OC[C@H]1c3ccc(O)cc3O[C@@H]21 [NCGC00384860-01]	22.82%	18.5 µM	29.1	
C=C1CC[C@@H]2[C@@](C)(CO[C@@H]3O[C@H](CO)[C@@H](O)[C@H](O)[C@H]3O)[C@H](O)CC[C@@]2(C)[C@@H]1CC/C(C)=C/CO[C@@H]1O[C@H](CO)[C@@H](O)[C@H](O)[C@H]1O [NCGC00385284-01]	26.38%	0.001 µM	−31.2	
C[C@@H]1O[C@@H](O[C@H]2[C@H](O[C@H]3[C@H](O[C@H]4CC[C@@]5(C)C(CC[C@]6(C)C5CC=C5[C@@H]7CC(C)(C(=O)O)C[C@@H](O)[C@]7(C)CC[C@]56C)[C@@]4(C)CO)O[C@H](C(=O)O)[C@@H](O)[C@@H]3O)O[C@H](CO)[C@H](O)[C@@H]2O)[C@H](O)[C@H](O)[C@H]1O (some centres unmarked) [NCGC00385739-01]	23.02%	3.13 µM	24.5	
COC(=O)c1cc(Br)cnc1N1CCC(NC2CCCCC2)C(O)C1 (centres unmarked) [NCGC00386932-01]	22.59%	0.004 µM	−26.5	
NS(=O)(=O)c1ccc(Nc2nc(OCC3CCCCC3)c3[nH]cnc3n2)cc1 [NU-6102]	46.11% and 34.8%		57.9 and 43.8	
Cl.Cl.Fc1ccccc1CNCc1ccc(-c2ccnc3[nH]ccc23)cc1 [OXA 06 dihydrochloride]	108.2%	0.736 µM	110	
CCCCC1C(=O)N(c2ccccc2)N(c2ccc(O)cc2)C1=O (centres unmarked) [OXYPHENBUTAZONE]	22.37%	23.3 µM	25.7	
CNS(=O)(=O)C[C@H]1CC[C@H](N(C)c2ncnc3[nH]ccc23)CC1 [Oclacitinib (PF-03394197), Oclacitinib]				Emax [4]: 93.8%; AC50 [5]: 20.8 µM; Emax [6]: 99.9%
CC1(C)CC[C@]2(C(=O)O)CC[C@]3(C)C(=CC[C@@H]4[C@@]5(C)CC[C@H](O)C(C)(C)[C@@H]5CC[C@]43C)[C@@H]2C1 [Oleanolic acid]				Emax [4]: 20.3%; AC50 [5]: 0.37 µM; Emax [6]: -10.7%
C[C@@H]1CCN(C(=O)N2CCCC2)C[C@@H]1N(C)c1ncnc2[nH]ccc12 [PF-956980]	47.75%	23.3 µM	53	
N#Cc1cccc(-c2c[nH]c3ncnc(N4CCOCC4)c23)c1 [PF-06447475]	42.8%	16.5 µM	44.6	
COc1ccccc1-c1c[nH]c2ncc(-c3cncc(C(=O)N(C)C)c3)cc12 [PPY A]	37.42%	2.93 µM	41.9	
CCCCCCCCCCCCCC(=O)O[C@@H]1[C@@H](C)[C@@]2(O)[C@@H](C=C(CO)C[C@]3(O)C(=O)C(C)=C[C@@H]23)[C@@H]2C(C)(C)[C@]12OC(C)=O [Phorbol 12-myristate 13-acetate]	48.49%	0.21 µM	36.8	
CC(N/C(=N\C#N)Nc1ccncc1)C(C)(C)C (centres unmarked) [Pinacidil]				AC50 [5]: 21.1 µM; Emax [10]: 86.4%; Emax [11]: 83.1%

From US20210348119A1, “COMPOSITIONS AND METHODS FOR CELL CULTURE” (The United States of America as Represented By The …, priority 2018, published 2021)
